Assay results reported in paper PMC9516332 (Frontiers in Oncology, 2022).
Like-named read-outs stand apart in the source and are kept apart here.

Experiments:
[1] = target: T1, panel of 255 wild-type kinases (Homo sapiens, UniProt Q9BZL6); assay: Kinase panel profiling at 1 µmol/L (MSA or IMAP), percentage inhibition; format: biochemical; conditions: kinase PKD2; 1 µmol/L single concentration; read-out: %-inhibition at 1 µmol/L, PKD2
T1 sequence (Q9BZL6 1-878): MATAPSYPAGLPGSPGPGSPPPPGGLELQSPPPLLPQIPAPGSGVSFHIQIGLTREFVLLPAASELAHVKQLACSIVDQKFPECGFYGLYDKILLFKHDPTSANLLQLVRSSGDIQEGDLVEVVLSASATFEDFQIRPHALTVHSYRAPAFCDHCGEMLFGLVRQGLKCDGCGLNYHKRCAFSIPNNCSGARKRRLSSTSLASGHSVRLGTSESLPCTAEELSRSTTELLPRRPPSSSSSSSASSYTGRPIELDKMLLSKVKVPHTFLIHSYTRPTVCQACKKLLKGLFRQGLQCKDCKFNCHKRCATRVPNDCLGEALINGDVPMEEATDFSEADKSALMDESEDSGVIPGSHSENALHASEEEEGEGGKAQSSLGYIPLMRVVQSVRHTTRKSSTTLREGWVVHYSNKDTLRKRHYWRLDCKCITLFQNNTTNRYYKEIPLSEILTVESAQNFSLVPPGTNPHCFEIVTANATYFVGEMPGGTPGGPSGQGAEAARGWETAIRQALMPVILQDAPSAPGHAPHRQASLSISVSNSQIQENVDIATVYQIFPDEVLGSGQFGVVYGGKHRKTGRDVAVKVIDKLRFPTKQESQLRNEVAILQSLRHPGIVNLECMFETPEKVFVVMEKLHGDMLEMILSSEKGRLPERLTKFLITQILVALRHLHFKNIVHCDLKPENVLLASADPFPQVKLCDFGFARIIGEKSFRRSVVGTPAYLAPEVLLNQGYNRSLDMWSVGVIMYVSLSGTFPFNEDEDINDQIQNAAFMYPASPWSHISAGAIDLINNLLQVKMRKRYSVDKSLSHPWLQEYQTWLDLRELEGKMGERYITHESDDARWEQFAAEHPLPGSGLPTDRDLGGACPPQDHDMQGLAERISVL

AP-1060 (ETV6-NTRK3) = assay: Cell viability assay; conditions: read-out: IC50 in cell proliferation assay
134 cancer cell lines = assay: Cell viability assay (ATPlite, 72 hours), IC50 on cancer cell line panel

Structure (SMILES): COc1ccc(CN2C3CC2CN(c2ccc(-c4cc(OCC(C)(C)O)cn5ncc(C#N)c45)cn2)C3)cn1 [selpercatinib]
- inhibition at 1 µM [1]: 1.11%
- IC50 (AP-1060 (ETV6-NTRK3)): 3.96 µM
- IC50 (134 cancer cell lines; HEC-6, read-out: IC50 in cell proliferation assay, HEC-6 cell line (EGFR p.A289V)): > 31.6 µM
- IC50 (134 cancer cell lines; Homo sapiens, 769-P, read-out: IC50 in cell proliferation assay, cell line 769-P): 5.72 µM
- IC50 (134 cancer cell lines; Homo sapiens, 786-0, read-out: IC50 in cell proliferation assay, cell line 786-O): 7.5 µM
- IC50 (134 cancer cell lines; Homo sapiens, A 172, read-out: IC50 in cell proliferation assay, cell line A-172): 1.33 µM
- IC50 (134 cancer cell lines; Homo sapiens, A204, read-out: IC50 in cell proliferation assay, cell line A-204): 2.47 µM
- IC50 (134 cancer cell lines; Homo sapiens, A498, read-out: IC50 in cell proliferation assay, cell line A-498): 6.25 µM
- IC50 (134 cancer cell lines; Homo sapiens, A549, read-out: IC50 in cell proliferation assay, cell line A-549): 3.75 µM
- IC50 (134 cancer cell lines; Homo sapiens, A704, read-out: IC50 in cell proliferation assay, cell line A-704): 2.74 µM
- IC50 (134 cancer cell lines; Homo sapiens, A-375, read-out: IC50 in cell proliferation assay, cell line A-375 (BRAF p.V600E)): 4.28 µM
- IC50 (134 cancer cell lines; Homo sapiens, A-427, read-out: IC50 in cell proliferation assay, cell line A-427): 1.53 µM
- IC50 (134 cancer cell lines; Homo sapiens, ACHN, read-out: IC50 in cell proliferation assay, cell line ACHN): 2.78 µM
- IC50 (134 cancer cell lines; Homo sapiens, AN3-CA, read-out: IC50 in cell proliferation assay, cell line AN3-CA (FGFR2 p.N549K)): 0.576 µM
- IC50 (134 cancer cell lines; Homo sapiens, ASPC1, read-out: IC50 in cell proliferation assay, cell line AsPC-1): > 31.6 µM
- IC50 (134 cancer cell lines; Homo sapiens, AU565, read-out: IC50 in cell proliferation assay, cell line AU565 (ERBB2 amplification)): 2.85 µM
- IC50 (134 cancer cell lines; Homo sapiens, BT-20, read-out: IC50 in cell proliferation assay, cell line BT-20): 3.36 µM
- IC50 (134 cancer cell lines; Homo sapiens, BT-474, read-out: IC50 in cell proliferation assay, cell line BT-474 (ERBB2 amplification)): 28.7 µM
- IC50 (134 cancer cell lines; Homo sapiens, BT-549, read-out: IC50 in cell proliferation assay, cell line BT-549): 3.82 µM
- IC50 (134 cancer cell lines; Homo sapiens, BXPC-3, read-out: IC50 in cell proliferation assay, cell line BxPC-3): 3.95 µM
- IC50 (134 cancer cell lines; Homo sapiens, C-33-A, read-out: IC50 in cell proliferation assay, cell line C-33 A): 2.85 µM
- IC50 (134 cancer cell lines; Homo sapiens, CAL-27, read-out: IC50 in cell proliferation assay, cell line CAL-27): 4.41 µM
- IC50 (134 cancer cell lines; Homo sapiens, CCF-STTG1, read-out: IC50 in cell proliferation assay, cell line CCF-STTG1): 7.96 µM
- IC50 (134 cancer cell lines; Homo sapiens, CCRF-CEM, read-out: IC50 in cell proliferation assay, cell line CCRF-CEM): 3.45 µM
- IC50 (134 cancer cell lines; Homo sapiens, COLO 205, read-out: IC50 in cell proliferation assay, cell line COLO 205 (BRAF p.V600E)): 4.42 µM
- IC50 (134 cancer cell lines; Homo sapiens, COLO-829, read-out: IC50 in cell proliferation assay, cell line COLO 829 (BRAF p.V600E)): 10.7 µM
- IC50 (134 cancer cell lines; Homo sapiens, DLD-1, read-out: IC50 in cell proliferation assay, cell line DLD-1): 8.43 µM
- IC50 (134 cancer cell lines; Homo sapiens, DU-4475, read-out: IC50 in cell proliferation assay, cell line DU4475 (BRAF p.V600E)): 6.24 µM
- IC50 (134 cancer cell lines; Homo sapiens, Daoy, read-out: IC50 in cell proliferation assay, cell line Daoy): 3.17 µM
- IC50 (134 cancer cell lines; Homo sapiens, DoTc2-4510, read-out: IC50 in cell proliferation assay, cell line DoTc2 4510): 4.18 µM
- IC50 (134 cancer cell lines; Homo sapiens, EOL1, read-out: IC50 in cell proliferation assay, cell line EoL-1 (FIP1L1-PDGFRA)): 0.29 µM
- IC50 (134 cancer cell lines; Homo sapiens, FaDu, read-out: IC50 in cell proliferation assay, cell line FaDu): 4.82 µM
- IC50 (134 cancer cell lines; Homo sapiens, G-361, read-out: IC50 in cell proliferation assay, cell line G-361 (BRAF p.V600E)): 5.87 µM
- IC50 (134 cancer cell lines; Homo sapiens, HCC827, read-out: IC50 in cell proliferation assay, cell line HCC827 (EGFR exon19del)): 13.5 µM
- IC50 (134 cancer cell lines; Homo sapiens, HCC4006, read-out: IC50 in cell proliferation assay, cell line HCC4006 (EGFR exon19del)): 6.75 µM
- IC50 (134 cancer cell lines; Homo sapiens, HCT-15, read-out: IC50 in cell proliferation assay, cell line HCT 15): 10.7 µM
- IC50 (134 cancer cell lines; Homo sapiens, HCT-116, read-out: IC50 in cell proliferation assay, cell line HCT 116): 14.9 µM
- IC50 (134 cancer cell lines; Homo sapiens, HEC-1, read-out: IC50 in cell proliferation assay, HEC-1 cell line): 8.9 µM
- IC50 (134 cancer cell lines; Homo sapiens, HEC-1B, read-out: IC50 in cell proliferation assay, HEC-1-B cell line (EGFR p.A864V)): 2.07 µM
- IC50 (134 cancer cell lines; Homo sapiens, HL-60, read-out: IC50 in cell proliferation assay, HL-60 cell line): 5.79 µM
- IC50 (134 cancer cell lines; Homo sapiens, HT, read-out: IC50 in cell proliferation assay, HT cell line): 4.86 µM
- IC50 (134 cancer cell lines; Homo sapiens, HT-1080, read-out: IC50 in cell proliferation assay, HT-1080 cell line): 5.16 µM
- IC50 (134 cancer cell lines; Homo sapiens, Hs746T, read-out: IC50 in cell proliferation assay, Hs 746.T cell line (MET exon14skip + amplification)): 28.1 µM
- IC50 (134 cancer cell lines; Homo sapiens, Hs-578T, read-out: IC50 in cell proliferation assay, Hs 578T cell line): 3.61 µM
- IC50 (134 cancer cell lines; Homo sapiens, HuTu80, read-out: IC50 in cell proliferation assay, HuTu 80 cell line): 1.35 µM
- IC50 (134 cancer cell lines; Homo sapiens, J82, read-out: IC50 in cell proliferation assay, J82 cell line): 3.3 µM
- IC50 (134 cancer cell lines; Homo sapiens, Jurkat E6.1, read-out: IC50 in cell proliferation assay, Jurkat E6.1 cell line): 4.03 µM
- IC50 (134 cancer cell lines; Homo sapiens, K562, read-out: IC50 in cell proliferation assay, K-562 cell line): 5.5 µM
- IC50 (134 cancer cell lines; Homo sapiens, KATO III, read-out: IC50 in cell proliferation assay, KATO III cell line (FGFR2 amplification)): 0.241 µM
- IC50 (134 cancer cell lines; Homo sapiens, KG-1, read-out: IC50 in cell proliferation assay, KG-1 cell line (FGFR1OP2-FGFR1)): 0.227 µM
- IC50 (134 cancer cell lines; Homo sapiens, KLE, read-out: IC50 in cell proliferation assay, KLE cell line): 5.6 µM
- IC50 (134 cancer cell lines; Homo sapiens, KMS-11, read-out: IC50 in cell proliferation assay, KMS-11 cell line (FGFR3 p.Y373C)): 0.661 µM
- IC50 (134 cancer cell lines; Homo sapiens, KU812, read-out: IC50 in cell proliferation assay, Ku812 cell line): 3.54 µM
- IC50 (134 cancer cell lines; Homo sapiens, Kasumi 1, read-out: IC50 in cell proliferation assay, Kasumi-1 cell line (KIT p.N822K)): 0.277 µM
- IC50 (134 cancer cell lines; Homo sapiens, LC-2-ad, read-out: IC50 in cell proliferation assay, LC-2/ad cell line (CCDC6-RET)): 0.018 µM
- IC50 (134 cancer cell lines; Homo sapiens, LNCaP-Clone-FGC, read-out: IC50 in cell proliferation assay, LNCaP clone FGC cell line): 16.8 µM
- IC50 (134 cancer cell lines; Homo sapiens, LS174T, read-out: IC50 in cell proliferation assay, LS174T cell line): 4.21 µM
- IC50 (134 cancer cell lines; Homo sapiens, LS-411N, read-out: IC50 in cell proliferation assay, LS411N cell line (BRAF p.V600E)): 3.76 µM
- IC50 (134 cancer cell lines; Homo sapiens, LoVo, read-out: IC50 in cell proliferation assay, LoVo cell line): 0.767 µM
- IC50 (134 cancer cell lines; Homo sapiens, MCF7, read-out: IC50 in cell proliferation assay, MCF-7 cell line): > 31.6 µM
- IC50 (134 cancer cell lines; Homo sapiens, MDA-MB-231, read-out: IC50 in cell proliferation assay, MDA-MB-231 cell line): 28 µM
- IC50 (134 cancer cell lines; Homo sapiens, MDA-MB-453, read-out: IC50 in cell proliferation assay, MDA-MB-453 cell line): > 31.6 µM
- IC50 (134 cancer cell lines; Homo sapiens, MDA-MB-468, read-out: IC50 in cell proliferation assay, MDA-MB-468 cell line): 5.5 µM
- IC50 (134 cancer cell lines; Homo sapiens, MG-63, read-out: IC50 in cell proliferation assay, MG-63 cell line): 3.08 µM
- IC50 (134 cancer cell lines; Homo sapiens, MIA PaCa-2, read-out: IC50 in cell proliferation assay, MIA PaCa-2 cell line): 3.4 µM
- IC50 (134 cancer cell lines; Homo sapiens, MKN-45, read-out: IC50 in cell proliferation assay, MKN45 cell line (MET amplification)): > 31.6 µM
- IC50 (134 cancer cell lines; Homo sapiens, MOLM-13, read-out: IC50 in cell proliferation assay, MOLM-13 cell line (FLT3 ITD)): 0.123 µM
